In patent publication US11401253B2, “16-methyl-oxacyclohexadecan-2-one and 16-methyl-azacyclohexadecan-2-one derivatives as antimicrobial agents” (THE UNIVERSITY OF MONTANA, priority 2017, dated 2022):
≈ marks a conversion by molar mass, not a printed value. Where “and” joins values, the source holds several entries; their conditions need not be identical. Identical values can stand only once.

Legend:
[1] = tested on: GFP synthesis; assay: Cell-free translation assay with GFP reporter; type: biochemical; details: 50 μM, 37° C., readings for 2 hr
Method: Further assessment of the effect of BPL76 on protein translation was done using a cell-free translation assay. The plasmid pY71-sfGFP^55 (5 ng) was translated in the PUREexpress in vitro protein synthesis system (New England Biolabs). The final concentrations of erythromycin, josamycin and tylosin in the translation reactions were 50 μM. The reactions were incubated at 37° C. and fluorescence readings (excitation: 488 nm, emission, 520 nm) were taken every 20 min for 2 hr.

[2] = tested on: S. aureus CAIRD148; assay: Antibiotic testing, methicillin-resistant S. aureus CAIRD148; type: cell-based; details: methicillin-resistant strain; for MIC: Staphylococcus aureus, CAIRD148
Excerpt: (§1) Both the methyl ester and the diacetate derivatives of BPL 76 slightly less but still very strong activity against the same four MRSA strains (Table 11). The activities of compounds BPL 76 and BPL 81 were compared to several known antibiotics against three methicillin-resistant strains of S. aureus [FIG. 6, comparative data provided by Hartford Hospital, Center for Anti-Infective Research and Development (CAIRD)].

[3] = tested on: Mycobacterium tuberculosis; assay: microbe, parasite or virus in culture; details: read-out: MIC, MABA
[4] = tested on: Streptococcus pyogenes; assay: Antibiotic testing (MIC), Streptococcus pyogenes; type: cell-based; details: growth inhibition ≥90%, read-out: minimum inhibitory concentration, Streptococcus pyogenes
[5] = tested on: S. aureus CAIRD116; assay: Antibiotic testing, methicillin-resistant S. aureus CAIRD116; type: cell-based; details: methicillin-resistant strain; for MIC: Staphylococcus aureus, CAIRD116
Excerpt: as §1

[6] = tested on: Staphylococcus aureus (13709); assay: Antibiotic testing (MIC), S. aureus 13709; type: cell-based; details: growth inhibition ≥90% relative to drug-free controls, read-out: minimum inhibitory concentration, Staphylococcus aureus (13709)
[7] = tested on: J774; assay: Cytotoxicity (MTS), J774 cells; type: cell-based, murine; details: Mus musculus, 72 hours exposure
[8] = tested on: S. aureus (NE277); assay: Antibiotic testing, methicillin-resistant S. aureus NE277; type: cell-based; details: for MIC: Staphylococcus aureus, read-out: antibiotic testing data (MIC), S. aureus (NE277)
Excerpt: as §1

[9] = tested on: Vero cell; assay: Cytotoxicity (MTS), Vero cells; type: cell-based, monkey; details: Primates, 72 hours exposure
[10] = tested on: HepG2; assay: Cytotoxicity (MTS), HepG2 cells; type: cell-based; details: Homo sapiens, 72 hours exposure
[11] = tested on: P. aeruginosa; assay: Antibiotic testing (MIC), gram negative P. aeruginosa; type: cell-based; details: Pseudomonas aeruginosa; read-out: MIC, P. aeruginosa
Method: (§2) None of this collection of compounds were active against Gram-negative bacteria
(§3) Additionally, BPL 76 and derivatives were tested against a panel of gram negative bacteria including K. pneumonia, P. aeruginosa and E. coli (Table 12).

[12] = tested on: K. pneumoniae (10031); assay: Antibiotic testing (MIC), gram negative K. pneumoniae; type: cell-based; details: Klebsiella pneumoniae; read-out: MIC, K. pneumoniae (10031)
Method: as §2, §3

[13] = tested on: Bacillus subtilis; assay: Antibiotic testing (MIC), Bacillus subtilis; type: cell-based; details: growth inhibition ≥90%, read-out: minimum inhibitory concentration, Bacillus subtilis
[14] = tested on: C. albicans; assay: Antibiotic testing (MIC), C. albicans; type: cell-based; details: Candida albicans; growth inhibition ≥90%; read-out: minimum inhibitory concentration, C. albicans
[15] = tested on: Candida glabrata; assay: Antibiotic testing (MIC), Candida glabrata; type: cell-based; details: Nakaseomyces glabratus; growth inhibition ≥90%; read-out: minimum inhibitory concentration, Candida glabrata
[16] = tested on: non-replicating persistence Mycobacterium tuberculosis (NRP-TB); assay: Low oxygen recovery assay (LORA), non-replicating persistence Mtb; type: cell-based; details: for MIC: Mycobacterium tuberculosis, non-replicating persistence, hypoxic conditions, read-out: MIC, LORA
[17] = tested on: B. anthracis; assay: microbe, parasite or virus in culture; type: cell-based; details: Bacillus anthracis, read-out: minimum inhibitory concentration, B. anthracis
[18] = tested on: E. coli (25922); assay: Antibiotic testing (MIC), gram negative E. coli; type: cell-based; details: Escherichia coli; read-out: MIC, E. coli (25922)
Method: as §2, §3

[19] = tested on: S. aureus CAIRD142; assay: Antibiotic testing, methicillin-resistant S. aureus CAIRD142; type: cell-based; details: methicillin-resistant strain; for MIC: Staphylococcus aureus, CAIRD142
Excerpt: as §1

[20] = tested on: Enterococcus faecalis; assay: Antibiotic testing (MIC), Enterococcus faecalis; type: cell-based; details: growth inhibition ≥90%, read-out: minimum inhibitory concentration, Enterococcus faecalis
[21] = tested on: Mycobacterium tuberculosis; details: MABA
[22] = target: T1, MMP-3 (Homo sapiens, UniProt P08254); assay: MMP-3 enzyme inhibition assay; type: biochemical
T1 construct: purchased BioMol
T1 sequence (P08254 100-477): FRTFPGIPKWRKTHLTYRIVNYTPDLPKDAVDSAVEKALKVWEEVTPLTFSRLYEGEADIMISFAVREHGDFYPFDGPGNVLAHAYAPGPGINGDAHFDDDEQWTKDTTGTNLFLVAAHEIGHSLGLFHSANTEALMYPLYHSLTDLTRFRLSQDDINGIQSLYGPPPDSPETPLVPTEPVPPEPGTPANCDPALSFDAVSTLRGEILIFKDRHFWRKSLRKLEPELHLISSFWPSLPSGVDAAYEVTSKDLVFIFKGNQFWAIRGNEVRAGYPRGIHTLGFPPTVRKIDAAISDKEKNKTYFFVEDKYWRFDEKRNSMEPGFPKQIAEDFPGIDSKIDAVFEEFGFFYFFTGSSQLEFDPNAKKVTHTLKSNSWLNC
Method: The two fungi were also co-cultured under controlled conditions. P. fuscum was grown in pure culture in potato dextrose broth (10×400 mL). After 24 h, an agar cube (8 mm^3) impregnated with P. camembertii/clavigerum mycelium was added to each flask and the resulting co-culture was shaken for 6 more days (200 rpm, room temperature). At time of harvest, methanol (50 mL/flask) was added, the mycelia were removed by gravity filtration and the broth was extracted with chloroform (3×2 L). The chloroform was removed in vacuo to yield 663 mg of crude extract. The crude extract was verified to be active in the MMP-3, caspase-1 and caspase-3 enzyme inhibition assays. Enzyme inhibitory activity was determined using specific BioMol enzyme inhibition assay kits for drug discovery as described in Stierle, A; Stierle, D. The Berkeleylactones, Antibiotic Macrolides from Fungal Coculture. J. Nat. Prod. 80, 4, 1150-1160.

Q: For `CC[C@H]1OC(=O)C[C@@H](O)[C@H](C)[C@@H](O[C@@H]2O[C@H](C)[C@@H](O[C@H]3C[C@@](C)(O)[C@@H](O)[C@H](C)O3)[C@H](N(C)C)[C@H]2O)[C@@H](CC=O)C[C@@H](C)C(=O)/C=C/C(C)=C/[C@@H]1CO[C@@H]1O[C@H](C)[C@@H](O)[C@@H](OC)[C@H]1OC` [tylosin], which “inhibition of GFP synthesis and corresponding fluorescence” value [1] is on record?
A: effectively inhibited

Q: Which “inhibition of GFP synthesis and corresponding fluorescence” value [1] does the source give for `CO[C@@H]1[C@@H](O[C@@H]2O[C@H](C)[C@@H](O[C@H]3C[C@@](C)(O)[C@@H](OC(=O)CC(C)C)[C@H](C)O3)[C@H](N(C)C)[C@H]2O)[C@@H](CC=O)C[C@@H](C)[C@@H](O)/C=C/C=C/C[C@@H](C)OC(=O)C[C@H]1OC(C)=O` [josamycin] here?
A: effectively inhibited

Q: With `COC(=O)[C@H](O)CS[C@@H]1CC(=O)[C@@H](O)CCCCCCCCC[C@@H](C)OC1=O` [BPL 76-Me ester, methyl (S)-2-hydroxy-3-(((3R,6S,16R)-6-hydroxy-16-methyl-2,5-dioxooxacyclohexadecan-3-yl)thio)propanoate] as the molecule, how does the MIC [2] read?
A: 2 µg/mL (≈ 4.78 µM)

Q: What about the MIC [3] of the same molecule?
A: 32 µg/mL (≈ 76.5 µM)

Q: What about the MIC [4] of the same molecule?
A: 3 µg/mL (≈ 7.17 µM)

Q: And the MIC [5]?
A: 2 µg/mL (≈ 4.78 µM)

Q: What about the MIC [6] of the same molecule?
A: 1 µg/mL (≈ 2.39 µM)

Q: And the IC50 [7]?
A: 38 µg/mL (≈ 90.8 µM)

Q: What about the MIC [8] of the same molecule?
A: 2 µg/mL (≈ 4.78 µM)

Q: And the IC50 [9]?
A: 74 µg/mL (≈ 177 µM)

Q: And the IC50 [10]?
A: 55.6 µg/mL (≈ 133 µM)

Q: And the MIC [11]?
A: > 250 µM

Q: And the MIC [12]?
A: 250 µM and 105 µg/mL

Q: And the MIC [13]?
A: 3 µg/mL (≈ 7.17 µM)

Q: And the MIC [14]?
A: 13 µg/mL (≈ 31.1 µM)

Q: And the MIC [15]?
A: 7 µg/mL (≈ 16.7 µM)

Q: And the MIC [16]?
A: 19 µg/mL (≈ 45.4 µM)

Q: And the MIC [17]?
A: 1 µg/mL (≈ 2.39 µM)

Q: What about the MIC [18] of the same molecule?
A: 125 µM and 52.3 µg/mL

Q: What about the MIC [19] of the same molecule?
A: 2 µg/mL (≈ 4.78 µM)

Q: What about the MIC [20] of the same molecule?
A: 3 µg/mL (≈ 7.17 µM)

Q: What does the source list for `C[C@@H]1CCCCCCCCC[C@H](OC(=O)CCC(=O)O)[C@H](O)/C=C/C(=O)O1` [BPL 84, 4-(((5R,6S,16R,E)-5-hydroxy-16-methyl-2-oxooxacyclohexadec-3-en-6-yl)oxy)-4-oxobutanoic acid]?
A: MIC [2]: > 90 µg/mL; antibiotic testing data (MIC), S. aureus CAIRD148 [2]: >250 µM; MIC [3]: > 100 µg/mL; activity against replicating Mtb (in words) [21]: not active; MIC [4]: > 90 µg/mL; MIC [5]: > 90 µg/mL; antibiotic testing data (MIC), S. aureus CAIRD116 [5]: >250 µM; MIC [6]: 45 µg/mL (≈ 117 µM); IC50 [7]: > 100 µg/mL; MIC [8]: > 90 µg/mL; antibiotic testing data (MIC), S. aureus (NE277) ([8]; methicillin-resistant strain): >250 µM; IC50 [9]: > 100 µg/mL; IC50 [10]: > 100 µg/mL; MIC [11]: > 250 µM; MIC [12]: > 250 µM; MIC [13]: > 90 µg/mL; MIC [14]: > 90 µg/mL; MIC [15]: > 90 µg/mL; activity against non-replicating Mtb (in words) ([16]; LORA): not active; MIC [16]: > 100 µg/mL; MIC [17]: > 90 µg/mL; MMP-3 inhibition [22]: weaker inhibitors; MIC [18]: > 250 µM; MIC [19]: > 90 µg/mL; antibiotic testing data (MIC), S. aureus CAIRD142 [19]: >250 µM

Q: For `CC[C@H]1OC(=O)[C@H](C)[C@@H](O[C@H]2C[C@@](C)(OC)[C@@H](O)[C@H](C)O2)[C@H](C)[C@@H](O[C@@H]2O[C@H](C)C[C@H](N(C)C)[C@H]2O)[C@](C)(O)C[C@@H](C)C(=O)[C@H](C)[C@@H](O)[C@]1(C)O` [erythromycin], which “inhibition of GFP synthesis and corresponding fluorescence” value [1] is on record?
A: effectively inhibited

Q: With `C[C@@H]1CCCCCCCCC[C@H](OC(=O)CCC(=O)O)C(=O)C[C@@H](SC[C@@H](O)C(=O)O)C(=O)O1` [BPL 88, 4-(((3R,6S,16R)-3-(((S)-2-carboxy-2-hydroxyethyl)thio)-16-methyl-2,5-dioxooxacyclohexadecan-6-yl)oxy)-4-oxobutanoic acid] as the molecule, how does the MIC [2] read?
A: 8 µg/mL (≈ 15.9 µM)

Q: And the MIC [3]?
A: > 100 µg/mL

Q: What about the MIC [4] of the same molecule?
A: 119 µg/mL (≈ 236 µM)

Q: What about the MIC [5] of the same molecule?
A: 15 µg/mL (≈ 29.7 µM)

Q: What about the MIC [6] of the same molecule?
A: 4 µg/mL (≈ 7.93 µM)

Q: What about the IC50 [7] of the same molecule?
A: 42.5 µg/mL (≈ 84.3 µM)

Q: What about the MIC [8] of the same molecule?
A: 8 µg/mL (≈ 15.9 µM)

Q: And the IC50 [9]?
A: > 100 µg/mL

Q: And the IC50 [10]?
A: > 100 µg/mL

Q: And the MIC [11]?
A: > 250 µM

Q: And the MIC [12]?
A: > 250 µM

Q: What about the MIC [13] of the same molecule?
A: 31 µg/mL (≈ 61.4 µM)

Q: And the MIC [14]?
A: > 119 µg/mL

Q: And the MIC [15]?
A: 31 µg/mL (≈ 61.4 µM)

Q: And the MIC [16]?
A: 46 µg/mL (≈ 91.2 µM)

Q: And the MIC [17]?
A: 8 µg/mL (≈ 15.9 µM)

Q: And the MMP-3 inhibition [22]?
A: weaker inhibitors

Q: What about the MIC [18] of the same molecule?
A: > 250 µM

Q: What about the MIC [19] of the same molecule?
A: 15 µg/mL (≈ 29.7 µM)

Q: And the MIC [20]?
A: 31 µg/mL (≈ 61.4 µM)

Q: What does the source list for `COC(=O)[C@@H](CS[C@@H]1CC(=O)[C@@H](OC(C)=O)CCCCCCCCC[C@@H](C)OC1=O)OC(C)=O` [BPL 76-diacetate, methyl (S)-2-acetoxy-3-(((3R,6S,16R)-6-acetoxy-16-methyl-2,5-dioxooxacyclohexadecan-3-yl)thio)propanoate]?
A: MIC [2]: 4 µg/mL (≈ 7.96 µM); MIC [4]: 15 µg/mL (≈ 29.8 µM); MIC [5]: 4 µg/mL (≈ 7.96 µM); MIC [6]: 2 µg/mL (≈ 3.98 µM); MIC [8]: 4 µg/mL (≈ 7.96 µM); MIC [11]: > 125 µM; MIC [12]: > 125 µM; MIC [13]: 7 µg/mL (≈ 13.9 µM); MIC [14]: > 125 µg/mL; MIC [15]: > 125 µg/mL; MIC [17]: 4 µg/mL (≈ 7.96 µM); MIC [18]: > 125 µM; MIC [19]: 7 µg/mL (≈ 13.9 µM); MIC [20]: 15 µg/mL (≈ 29.8 µM)
